Data from patent US20040204577A1, “Novel peptide-forming enzyme gene” (Ajinomoto Co., Inc., priority 2003, published 2004).
Each block holds one compound with its values, some of them ahead of it. Where a SMILES comes first, the peptide text is derived from it. [ ]: non-standard residue; d: D form.

Legend:
[1] = tested on: enzyme derived from Sphingobacterium sp. strain FERM BP-8124 (SP-Sepharose HP fraction enzyme); assay: Enzyme substrate specificity (11), (12): peptide production; type: biochemical; design: key to Produced peptide (Table 15-1) / Produced peptide (Table 15-3) / Produced peptide (Table 15-4): +: those peptides for which production was confirmed but which were unable to be quantified due to the absence of a standard; a trace amount; settings: carboxy component 100 mM, 0.33 units enzyme, pH 9.0, 25° C., 1.5 hours; for Produced peptide (Table 15-4): amides and methylamine
Description: Substrate specificity was examined for enzyme derived from Sphingobacterium sp. strain FERM BP-8124 (Depositary institution: the independent administrative corporation, National Institute of Advanced Industrial Science and Technology, International Patent Organism Depositary, Address of depositary institution: Chuo Dai-6, 1-1 Higashi 1-Chome, Tsukuba-shi, Ibaraki-ken, Japan, International deposit date: […] The amounts of various peptides formed in this reaction are shown in Table 15. The “+” mark indicates those peptides for which production was confirmed but which were unable to be quantified due to the absence of a standard, while “tr” indicates a trace amount. Furthermore, Tween-80 was added to the reaction system to a final concentration of 0.1% in the case of using L-Tyr-OMe. In addition, hydrochloride salts were used for all carboxy components. Substrate specificity with respect to oligopeptide production was examined for enzyme derived from Sphingobacterium sp. strain FERM BP-8124 (Depositary institution: the independent administrative corporation, National Institute of Advanced Industrial Science and Technology, International Patent Organism Depositary, Address of depositary institution: Chuo Dai-6, 1-1 Higashi 1-Chome, Tsukuba-shi, Ibaraki-ken, Japan, International deposit date: […] The amounts of each oligopeptide formed in this reaction are shown in Table 16. Furthermore, hydrochloride salts were used for all the carboxy components.

[2] = tested on: peptide-forming enzyme (Mono S fraction enzyme); assay: Enzyme substrate specificity (1)-(10), (13), (14): peptide production; type: biochemical, Empedobacter brevis; design: key to Formed peptide: +: those peptides for which production was confirmed but which were unable to be quantified due to the absence of a standard; a trace amount; settings: pH 9.0, 25° C., 3 hours
Description: Ester specificity was examined in the case of using L-amino acid ester for the carboxy component. 2 μl of the same enzyme fraction as used in Example 5 was added to 100 μl of 100 mM borate buffer (pH 9.0) containing the carboxy components indicated in Table 4 at 100 mM, 200 mM L-glutamine and 10 mM EDTA, and allowed to react at 25° C. for 2 hours. HCl represents hydrochloride in Table 4.
Peptide production was examined in the case of using L-alanine methyl ester for the carboxy component and using various L-amino acids for the amine component.
Peptide production was examined in the case of using various types of L-amino acid methyl esters for the carboxy component and using L-glutamine for the amine component. 2 μl of the same enzyme fraction as used in Example 5 was added to 100 μl of 100 mM borate buffer (pH 9.0) containing the L-amino acid methyl ester hydrochloride salts (AA-OMe.HCl) shown in Table 6 at 100 mM, 150 mM L-glutamine and 10 mM EDTA, and allowed to react at 25° C. for 3 hours. […] Furthermore, Tween-80 was added to the reaction system to a final concentration of 0.1% in the case of using L-Trp-OMe and L-Tyr-OMe.
Peptide production was examined in the case of using various L-amino acid methyl esters for the carboxy component and various L-amino acids for the amine component. 2 μl of the same enzyme fraction as used in Example 5 was added to 100 μl of 100 mM borate buffer (pH 9.0) containing the L-amino acid methyl ester hydrochloride salts (AA-OMe.HCl) shown in Table 7 at 100 mM, the L-amino acids shown in Table 7 at 150 mM and 10 mM EDTA, and allowed to react at 25° C. for 3 hours. The “tr” indicates a trace amount. Furthermore, Tween-80 was added to the reaction system to a final concentration of 0.1% in the case of using L-Trp-OMe.
Peptide production was examined in the case of using the L or D forms of various amino acid methyl esters for the carboxy component, and the L or D forms of various amino acids for the amine component. 2 μl of the same enzyme fraction as used in Example 5 was added to 100 μl of 100 mM borate buffer (pH 9.0) containing the various amino acid methyl ester hydrochloride salts (AA-OMe HCl) shown in Table 8 at 100 mM, the various amino acids shown in Table 8 at 150 mM and 10 mM EDTA, and allowed to react at 25° C. for 3 hours. The “tr” indicates a trace amount.
Peptide production was examined using various L-amino acid amides for the carboxy component, and various L-amino acids for the amine component. 2 μl of the same enzyme fraction as that used in Example 5 was added to 100 μl of 100 mM borate buffer (pH 9.0) containing the L-amino acid amide hydrochloride salt (M-NH2.HCl) shown in Table 9 at 100 mM, the L-amino acids shown in Table 9 at 150 mM and 10 mM EDTA, and allowed to react at 25° C. for 3 hours.
Peptide production was examined in the case of using various L-alanine methyl esters for the carboxy component and C-protected L-amino acids for the amine component. 2 μl of the same enzyme fraction as used in Example 5 was added to 100 μl of 100 mM borate buffer (pH 9.0) containing the L-alanine methyl ester hydrochloride hydrochloride salt (Ala-OMe.HCl) shown in Table 10 at 100 mM, the L-amino acid amide hydrochloride salts shown in Table 10 at 150 mM and 10 mM EDTA, and allowed to react at 25° C. for 3 hours.
Peptide production was examined in the case of using various amino acid methyl esters for the carboxy component and methylamine for the amine component. 2 μl of the same enzyme fraction as used in Example 5 was added to 100 μl of 100 mM borate buffer (pH 9.0) containing the amino acid methyl ester hydrochloride salt (M-OMe.HCl) shown in Table 11 at 100 mM, the methylamine shown in Table 11 at 150 mM and 10 mM EDTA, and allowed to react at 25° C. for 3 hours.
Peptide production was examined in the case of using […] for the carboxy component or β-amino acid for the amine component.

[3] = L or D amino acid methyl ester hydrochloride 100 mM, L or D amino acid 150 mM
[4] = L-amino acid methyl ester hydrochloride 100 mM, L-amino acid 150 mM
[5] = L-alanine methyl ester hydrochloride 100 mM, L-amino acid amide hydrochloride 150 mM
[6] = 100 mM L-alanine methyl ester hydrochloride, L-amino acid 150 mM

Structure (SMILES): C[C@@H](N)C(=O)N[C@H](CO)C(=O)O [D-Ala-D-Ser] (H-[dA]-[dS]-OH)
Produced peptide (Table 15-1) ([1]; amine component 150 mM): 5.5 mM
Formed peptide [2, 3]: 0.2 mM

Structure (SMILES): C[C@@H](N)C(=O)N[C@@H](CO)C(=O)O [D-Ala-L-Ser] (H-[dA]-Ser-OH)
Produced peptide (Table 15-1) ([1]; amine component 150 mM): 24.1 mM
Formed peptide [2, 3]: 20.3 mM

Structure (SMILES): NCC(=O)N[C@@H](CCCN=C(N)N)C(=O)O [Gly-L-Arg] (H-Gly-Arg-OH)
Produced peptide (Table 15-3) ([1]; amine component 150 mM): 17.9 mM
Formed peptide [2, 4]: 25.5 mM

Structure (SMILES): NCC(=O)N[C@@H](CCC(N)=O)C(=O)O [Gly-L-Gln] (H-Gly-Gln-OH)
Produced peptide (Table 15-2) ([1]; L-Gln 150 mM): 61.1 mM
Formed peptide ([2]; L-amino acid methyl ester hydrochloride 100 mM, 150 mM L-glutamine): 54.7 mM

Structure (SMILES): NCCCC[C@H](NC(=O)CN)C(=O)O [Gly-L-Lys] (H-Gly-Lys-OH)
Produced peptide (Table 15-3) ([1]; amine component 150 mM): 48.2 mM
Formed peptide [2, 4]: 9.8 mM

Structure (SMILES): NCC(=O)N[C@@H](Cc1ccccc1)C(=O)O [Gly-L-Phe] (H-Gly-Phe-OH)
Produced peptide (Table 15-3) ([1]; amine component 150 mM): 20.0 mM
Formed peptide [2, 4]: 44.0 mM
Produced peptide (oligopeptide) ([2]; amount of enzyme 0.1 unit): 17.3 mM

Structure (SMILES): NCC(=O)N[C@@H](CO)C(=O)O [Gly-L-Ser] (H-Gly-Ser-OH)
Produced peptide (Table 15-3) ([1]; amine component 150 mM): 53.8 mM
Formed peptide [2, 4]: 44.2 mM

Structure (SMILES): CNC(=O)CN [Gly-methylamine]
Produced peptide (Table 15-4) ([1]; amine component 150 mM): 1.0 mM
Formed peptide ([2]; amino acid methyl ester hydrochloride 100 mM, methylamine 150 mM): 1.1 mM

Structure (SMILES): C[C@H](N)C(=O)N[C@H](CO)C(=O)O [L-Ala-D-Ser] (H-Ala-[dS]-OH)
Produced peptide (Table 15-1) ([1]; amine component 150 mM): 3.3 mM
Formed peptide [2, 3]: 5.4 mM

Structure (SMILES): C[C@H](N)C(=O)NCC(N)=O [L-Ala-Gly-NH2] (H-Ala-Gly-NH2)
Produced peptide (Table 15-4) ([1]; amine component 150 mM): 15.1 mM
Formed peptide [2, 5]: 7.4 mM

Structure (SMILES): C[C@H](N)C(=O)NCC(=O)O [L-Ala-Gly] (H-Ala-Gly-OH)
Produced peptide (Table 15-1) ([1]; amine component 150 mM): 11.1 mM
Formed peptide [2, 6]: 13.7 mM

Structure (SMILES): C[C@H](N)C(=O)N[C@@H](C)C(=O)O [L-Ala-L-Ala] (H-Ala-Ala-OH)
Produced peptide (Table 15-1) ([1]; amine component 150 mM): 13.1 mM
Produced peptide (Table 16, oligopeptide) ([1]; amine component 150 mM): 25.6 mM
Formed peptide [2, 6]: 25.4 mM
Produced peptide ([2]; L-amino acid ester 100 mM, peptide (amine component) 150 mM): 28.7 mM

Second part, the compound after the results:

Produced peptide (Table 15-4) ([1]; amine component 150 mM): 9.2 mM
Formed peptide [2, 5]: 8.3 mM
Structure (SMILES): C[C@H](N)C(=O)N[C@@H](C)C(N)=O [L-Ala-L-Ala-NH2] (H-Ala-Ala-NH2)

Produced peptide (Table 15-1) ([1]; amine component 150 mM): 52.3 mM
Formed peptide [2, 6]: 65.5 mM
Structure (SMILES): C[C@H](N)C(=O)N[C@@H](CC(N)=O)C(=O)O [L-Ala-L-Asn] (H-Ala-Asn-OH)

Produced peptide (Table 15-1) ([1]; amine component 150 mM): 2.3 mM
Formed peptide [2, 6]: 2.1 mM
Structure (SMILES): C[C@H](N)C(=O)N[C@@H](CC(=O)O)C(=O)O [L-Ala-L-Asp] (H-Ala-Asp-OH)

Produced peptide (Table 15-1) ([1]; amine component 150 mM): +
Formed peptide [2, 6]: +
Structure (SMILES): C[C@H](N)C(=O)N[C@@H](CS)C(=O)O [L-Ala-L-CySH] (H-Ala-Cys-OH)

Produced peptide (Table 15-1) ([1]; amine component 150 mM): 39.1 mM
Formed peptide [2, 6]: 42.9 mM
Structure (SMILES): C[C@H](N)C(=O)N[C@@H](CCC(=O)O)C(=O)O [L-Ala-L-Glu] (H-Ala-Glu-OH)

Produced peptide (Table 15-1) ([1]; amine component 150 mM): 24.7 mM
Formed peptide [2, 6]: 33.9 mM
Structure (SMILES): CC[C@H](C)[C@H](NC(=O)[C@H](C)N)C(=O)O [L-Ala-L-Ile] (H-Ala-Ile-OH)

Produced peptide (Table 15-1) ([1]; amine component 150 mM): 71.2 mM
Formed peptide [2, 6]: 71.8 mM
Structure (SMILES): C[C@H](N)C(=O)N[C@@H](CCCCN)C(=O)O [L-Ala-L-Lys] (H-Ala-Lys-OH)
